{"source": "patent US8575199B2", "about": "“Formula (IA″) compounds comprising (piperidin-4-yl)pyridine or (1,2,3,6-tetrahydropyridin-4-4yl) as TRPV1 antagonists” (Purdue Pharma L.P., priority 2007, dated 2013)", "key": {"[1]": {"test": "Aqueous solubility at pH 6.8 or pH 1.2", "format": "physicochemical", "details": "aqueous solution"}, "human recombinant TRPV1": {"biological_target": "T1, human recombinant TRPV1 (Homo sapiens, UniProt Q8NER1)", "T1 construct": "using primers designed surrounding the complete hTRPV1 open reading frame; expressed in transfected cells; host or cells: CHO-K1 cells stably transfected with pcDNA3.1(-)-hVR1 plasmid", "T1 sequence (Q8NER1 whole entry)": "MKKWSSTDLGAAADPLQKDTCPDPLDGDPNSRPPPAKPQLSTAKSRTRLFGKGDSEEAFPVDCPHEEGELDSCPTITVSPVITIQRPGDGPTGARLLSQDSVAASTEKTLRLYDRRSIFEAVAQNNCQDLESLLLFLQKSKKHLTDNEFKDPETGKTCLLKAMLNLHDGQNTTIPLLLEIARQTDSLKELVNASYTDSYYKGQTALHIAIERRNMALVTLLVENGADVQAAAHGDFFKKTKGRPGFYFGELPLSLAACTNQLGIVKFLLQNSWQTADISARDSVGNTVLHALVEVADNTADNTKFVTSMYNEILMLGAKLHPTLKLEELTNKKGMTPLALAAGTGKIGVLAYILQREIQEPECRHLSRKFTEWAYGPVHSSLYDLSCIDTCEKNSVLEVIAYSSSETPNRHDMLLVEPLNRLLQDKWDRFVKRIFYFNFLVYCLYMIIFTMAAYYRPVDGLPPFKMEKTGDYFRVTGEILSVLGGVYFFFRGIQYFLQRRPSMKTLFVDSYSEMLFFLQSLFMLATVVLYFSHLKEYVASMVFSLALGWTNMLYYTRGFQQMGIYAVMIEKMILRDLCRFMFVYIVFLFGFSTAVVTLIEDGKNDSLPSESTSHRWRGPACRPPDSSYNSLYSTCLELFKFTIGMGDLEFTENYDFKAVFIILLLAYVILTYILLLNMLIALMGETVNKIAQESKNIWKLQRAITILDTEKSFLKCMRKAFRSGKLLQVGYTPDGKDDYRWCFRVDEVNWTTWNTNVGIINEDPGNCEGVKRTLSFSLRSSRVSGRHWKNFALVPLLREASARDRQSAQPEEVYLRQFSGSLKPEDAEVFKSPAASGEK", "test": "pH-based assay, Protocol 2 (hpH-CHO), Ca2+ influx by Fura-2 AM/FDSS-3000 in TRPV1/CHO cells", "format": "cell-based", "details": "H2SO4 agonist, pH 5.0-5.1, mean ± standard error of the mean (number of trials), read-out: TRPV1 IC50 Potency, Human pH CHO (hpH-CHO)", "source_text": "For Protocol 2, a Chinese Hamster Ovary cell line (CHO) that has been engineered to constitutively express human recombinant TRPV1 was used (TRPV1/CHO cells). The TRPV1/CHO cell line was generated as described below.\nThe resulting PCR products were purified from agarose gels using Gel Band Purification Kit (GE Healthcare Bioscience) and were subcloned into pCR-Blunt vector (Invitrogen). The cloned cDNA was fully sequenced using a fluorescent dye-terminator reagent (BigDye Terminator ver3.1 Cycle Sequencing Kit, Applied Biosystems) and ABI Prism 3100 genetic analyzer (Applied Biosystems). The pCR-Blunt vector containing the hTRPV1 cDNA was subjected to restriction digestion with EcoR1. […] The sequence of the cDNA encoding TRPV1 is available at GenBank accession number AJ277028. […]\n(5) The Fura-2 fluorescent intensity was monitored at a wavelength of 340 nm and at 380 nm, respectively, at a rate of 0.5 Hz for a total of 240 seconds. […]\n(6) Fluorescence intensity ratio refers to the fluorescence intensity at 340 nm over the fluorescence intensity at 380 nm at a particular time point. […]\n(7) Maximal signal ratios from each well were calculated as output data using the FDSS-3000 analysis program. Data were analyzed using Excel (Microsoft) and XLfit (idbs) software."}, "[2]": {"details": "pH 1.2, simulated gastric fluid, read-out: aqueous solubility at pH 1.2"}, "[3]": {"details": "pH 6.8, aqueous buffer, read-out: aqueous solubility at pH 6.8"}}, "note": "Read-outs that look alike come from different tables or passages of the source.", "data": [{"smiles": "O=C(Nc1ccc(C(F)(F)F)c(Cl)c1)N1CC=C(c2ncccc2F)CC1", "note": "[Compound 215]", "values": [{"measurement": "solubility", "setting": "[1]; [2]", "value": 9.6, "unit": "µM"}, {"measurement": "solubility", "setting": "[1]; [3]", "value": 0.6, "unit": "µM"}]}, {"smiles": "O=C(Nc1ccc(C(F)(F)F)c(Cl)c1)N1CCC(F)(c2ncc([C@H](O)CO)cc2F)CC1", "note": "[Compound Q3]", "values": [{"measurement": "IC50", "setting": "human recombinant TRPV1", "value": "5.3 ± 1", "unit": "nM"}]}, {"smiles": "O=C(Nc1ccc(OC(F)(F)F)c(-c2ccccc2)c1)N1CC=C(c2ncc(CO)cc2Cl)CC1", "note": "[Compound D3]", "values": [{"measurement": "IC50", "setting": "human recombinant TRPV1", "value": "39.8 ± 2.2", "unit": "nM"}]}, {"smiles": "O=C(Nc1ccc(C(F)(F)F)c(F)c1)N1CCC(F)(c2ncccc2Cl)CC1", "note": "[Compound 209]", "values": [{"measurement": "solubility", "setting": "[1]; [2]", "value": 9.3, "unit": "µM"}, {"measurement": "solubility", "setting": "[1]; [3]", "value": 1, "unit": "µM"}]}, {"smiles": "O=C(Nc1ccc(C(F)(F)F)c(F)c1)N1CC=C(c2ncccc2Cl)CC1", "note": "[Compound 213]", "values": [{"measurement": "solubility", "setting": "[1]; [2]", "value": 39.6, "unit": "µM"}, {"measurement": "solubility", "setting": "[1]; [3]", "value": 0.8, "unit": "µM"}]}]}
